Several values for one entry are separate records, joined by “and”; a condition that tells them apart may be missing. Equal entries are not always repeated.
How the values were obtained:
Type in all cases: cell-based
[1] = biological target: panel of 320 non-olfactory GPCRs (Homo sapiens, UniProt O00270)
[2] = biological target: panel of 320 non-olfactory GPCRs (Homo sapiens, UniProt O15354)
[3] = biological target: panel of 320 non-olfactory GPCRs (Homo sapiens, UniProt P21728)
[4] = biological target: panel of 320 non-olfactory GPCRs (Homo sapiens, UniProt P21730)
[5] = biological target: panel of 320 non-olfactory GPCRs (Homo sapiens, UniProt P25101)
[6] = biological target: panel of 320 non-olfactory GPCRs (Homo sapiens, UniProt P25116)
Chain of panel of 320 non-olfactory GPCRs (Homo sapiens, UniProt P25116) (P25116 22-425): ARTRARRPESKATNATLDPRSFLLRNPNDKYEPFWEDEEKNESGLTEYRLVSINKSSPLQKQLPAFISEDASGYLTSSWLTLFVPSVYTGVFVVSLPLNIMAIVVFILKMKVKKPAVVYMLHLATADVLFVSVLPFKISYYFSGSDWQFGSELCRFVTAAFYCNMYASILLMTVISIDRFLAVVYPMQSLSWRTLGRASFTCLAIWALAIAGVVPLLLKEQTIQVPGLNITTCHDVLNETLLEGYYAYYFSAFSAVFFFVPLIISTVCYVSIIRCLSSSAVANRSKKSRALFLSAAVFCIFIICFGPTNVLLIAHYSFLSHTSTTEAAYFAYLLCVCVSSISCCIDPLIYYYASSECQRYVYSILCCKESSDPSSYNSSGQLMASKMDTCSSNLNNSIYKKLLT

[7] = biological target: panel of 320 non-olfactory GPCRs (Homo sapiens, UniProt P28222)
[8] = biological target: panel of 320 non-olfactory GPCRs (Homo sapiens, UniProt P29275)
[9] = biological target: panel of 320 non-olfactory GPCRs (Homo sapiens, UniProt P30556)
[10] = biological target: panel of 320 non-olfactory GPCRs (Homo sapiens, UniProt P31391)
[11] = biological target: panel of 320 non-olfactory GPCRs (Homo sapiens, UniProt P32249)
Chain of panel of 320 non-olfactory GPCRs (Homo sapiens, UniProt P32249) (P32249 whole entry): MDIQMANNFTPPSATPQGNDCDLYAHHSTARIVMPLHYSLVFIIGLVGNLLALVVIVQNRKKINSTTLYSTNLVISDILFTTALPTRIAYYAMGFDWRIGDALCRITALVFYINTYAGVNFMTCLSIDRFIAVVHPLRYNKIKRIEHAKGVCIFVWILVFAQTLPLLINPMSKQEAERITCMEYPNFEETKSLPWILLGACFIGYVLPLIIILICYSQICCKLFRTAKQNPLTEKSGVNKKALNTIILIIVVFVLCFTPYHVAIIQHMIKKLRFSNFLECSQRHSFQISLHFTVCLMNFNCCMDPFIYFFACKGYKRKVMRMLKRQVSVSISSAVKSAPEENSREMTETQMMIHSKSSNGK

[12] = biological target: panel of 320 non-olfactory GPCRs (Homo sapiens, UniProt P34972)
[13] = biological target: panel of 320 non-olfactory GPCRs (Homo sapiens, UniProt P35348)
[14] = biological target: panel of 320 non-olfactory GPCRs (Homo sapiens, UniProt P41594)
[15] = biological target: panel of 320 non-olfactory GPCRs (Homo sapiens, UniProt P46663)
[16] = biological target: panel of 320 non-olfactory GPCRs (Homo sapiens, UniProt P47898)
[17] = biological target: panel of 320 non-olfactory GPCRs (Homo sapiens, UniProt P48039)
Chain of panel of 320 non-olfactory GPCRs (Homo sapiens, UniProt P48039) (P48039 whole entry): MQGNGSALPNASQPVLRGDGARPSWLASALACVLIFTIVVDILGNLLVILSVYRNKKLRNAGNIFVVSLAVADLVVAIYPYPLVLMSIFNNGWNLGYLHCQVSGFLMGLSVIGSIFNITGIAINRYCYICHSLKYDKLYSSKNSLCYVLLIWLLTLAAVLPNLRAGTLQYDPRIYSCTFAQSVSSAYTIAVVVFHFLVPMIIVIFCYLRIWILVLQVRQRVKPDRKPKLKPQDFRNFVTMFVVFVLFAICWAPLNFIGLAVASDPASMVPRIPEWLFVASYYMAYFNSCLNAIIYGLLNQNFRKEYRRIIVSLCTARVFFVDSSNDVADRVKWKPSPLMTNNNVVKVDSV

[18] = biological target: panel of 320 non-olfactory GPCRs (Homo sapiens, UniProt P51810)
[19] = biological target: panel of 320 non-olfactory GPCRs (Homo sapiens, UniProt P55085)
[20] = biological target: panel of 320 non-olfactory GPCRs (Homo sapiens, UniProt Q01726)
Chain of panel of 320 non-olfactory GPCRs (Homo sapiens, UniProt Q01726) (Q01726 whole entry): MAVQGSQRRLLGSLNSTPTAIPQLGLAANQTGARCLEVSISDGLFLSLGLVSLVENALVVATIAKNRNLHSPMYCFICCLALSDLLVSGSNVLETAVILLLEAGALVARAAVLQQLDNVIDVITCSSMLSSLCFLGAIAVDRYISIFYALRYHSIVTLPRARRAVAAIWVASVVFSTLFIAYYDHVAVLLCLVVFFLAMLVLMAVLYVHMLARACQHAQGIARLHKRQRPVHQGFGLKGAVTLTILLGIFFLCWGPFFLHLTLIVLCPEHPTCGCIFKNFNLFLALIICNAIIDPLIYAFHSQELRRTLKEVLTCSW

[21] = biological target: panel of 320 non-olfactory GPCRs (Homo sapiens, UniProt Q13304)
[22] = biological target: panel of 320 non-olfactory GPCRs (Homo sapiens, UniProt Q13324)
[23] = biological target: panel of 320 non-olfactory GPCRs (Homo sapiens, UniProt Q13585)
[24] = biological target: panel of 320 non-olfactory GPCRs (Homo sapiens, UniProt Q15760)
[25] = biological target: panel of 320 non-olfactory GPCRs (Homo sapiens, UniProt Q5T6X5)
[26] = biological target: panel of 320 non-olfactory GPCRs (Homo sapiens, UniProt Q6NV75)
[27] = biological target: panel of 320 non-olfactory GPCRs (Homo sapiens, UniProt Q6QNK2)
[28] = biological target: panel of 320 non-olfactory GPCRs (Homo sapiens, UniProt Q7Z7M1)
Chain of panel of 320 non-olfactory GPCRs (Homo sapiens, UniProt Q7Z7M1) (Q7Z7M1 whole entry): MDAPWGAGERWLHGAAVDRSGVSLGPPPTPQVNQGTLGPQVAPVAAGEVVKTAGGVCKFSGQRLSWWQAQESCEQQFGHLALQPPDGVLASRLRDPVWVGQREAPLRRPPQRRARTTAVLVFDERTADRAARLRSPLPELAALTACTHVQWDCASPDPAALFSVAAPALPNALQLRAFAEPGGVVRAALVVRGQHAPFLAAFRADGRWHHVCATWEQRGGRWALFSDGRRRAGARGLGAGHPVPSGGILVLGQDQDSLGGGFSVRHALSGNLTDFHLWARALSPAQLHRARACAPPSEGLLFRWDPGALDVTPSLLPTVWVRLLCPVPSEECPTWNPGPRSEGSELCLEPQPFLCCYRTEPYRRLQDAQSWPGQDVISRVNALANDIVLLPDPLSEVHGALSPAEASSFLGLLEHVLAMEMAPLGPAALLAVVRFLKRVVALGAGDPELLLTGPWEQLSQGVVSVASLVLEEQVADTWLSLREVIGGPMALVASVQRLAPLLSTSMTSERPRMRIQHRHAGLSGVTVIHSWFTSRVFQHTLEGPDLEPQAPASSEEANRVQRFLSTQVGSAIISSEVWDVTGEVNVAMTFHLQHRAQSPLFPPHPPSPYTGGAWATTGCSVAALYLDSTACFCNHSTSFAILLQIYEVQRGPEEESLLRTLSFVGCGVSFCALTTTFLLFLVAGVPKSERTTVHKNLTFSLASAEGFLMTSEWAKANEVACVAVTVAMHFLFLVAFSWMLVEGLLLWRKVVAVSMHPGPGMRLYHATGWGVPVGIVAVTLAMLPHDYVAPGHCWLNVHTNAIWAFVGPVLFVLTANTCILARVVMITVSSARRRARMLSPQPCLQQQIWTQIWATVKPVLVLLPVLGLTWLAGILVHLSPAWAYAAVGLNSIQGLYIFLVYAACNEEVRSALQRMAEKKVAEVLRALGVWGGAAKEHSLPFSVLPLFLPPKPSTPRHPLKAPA

[29] = biological target: panel of 320 non-olfactory GPCRs (Homo sapiens, UniProt Q86Y34)
[30] = biological target: panel of 320 non-olfactory GPCRs (Homo sapiens, UniProt Q92633)
Chain of panel of 320 non-olfactory GPCRs (Homo sapiens, UniProt Q92633) (Q92633 whole entry): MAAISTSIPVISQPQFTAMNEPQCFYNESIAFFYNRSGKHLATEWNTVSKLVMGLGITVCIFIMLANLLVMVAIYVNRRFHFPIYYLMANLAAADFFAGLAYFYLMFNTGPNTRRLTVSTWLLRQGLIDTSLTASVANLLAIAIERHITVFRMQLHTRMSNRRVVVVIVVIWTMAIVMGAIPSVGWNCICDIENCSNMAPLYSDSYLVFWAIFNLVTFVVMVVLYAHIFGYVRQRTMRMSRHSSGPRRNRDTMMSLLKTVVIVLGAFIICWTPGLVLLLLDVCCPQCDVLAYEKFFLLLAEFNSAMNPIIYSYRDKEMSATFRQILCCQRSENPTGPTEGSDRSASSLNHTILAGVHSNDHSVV

[31] = biological target: panel of 320 non-olfactory GPCRs (Homo sapiens, UniProt Q969N4)
[32] = biological target: panel of 320 non-olfactory GPCRs (Homo sapiens, UniProt Q96P66)
[33] = biological target: panel of 320 non-olfactory GPCRs (Homo sapiens, UniProt Q99679)
[34] = biological target: panel of 320 non-olfactory GPCRs (Homo sapiens, UniProt Q9GZN0)
Chain of panel of 320 non-olfactory GPCRs (Homo sapiens, UniProt Q9GZN0) (Q9GZN0 whole entry): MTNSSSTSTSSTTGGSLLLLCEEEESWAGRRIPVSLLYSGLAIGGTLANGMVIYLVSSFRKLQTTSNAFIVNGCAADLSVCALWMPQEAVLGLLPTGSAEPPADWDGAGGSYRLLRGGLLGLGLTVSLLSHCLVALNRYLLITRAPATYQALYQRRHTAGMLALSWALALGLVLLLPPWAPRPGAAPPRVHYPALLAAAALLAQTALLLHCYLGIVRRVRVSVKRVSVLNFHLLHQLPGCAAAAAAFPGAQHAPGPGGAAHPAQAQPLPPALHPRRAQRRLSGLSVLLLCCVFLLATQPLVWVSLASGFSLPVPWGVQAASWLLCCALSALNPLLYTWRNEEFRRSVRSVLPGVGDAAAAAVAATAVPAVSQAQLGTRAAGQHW

[35] = biological target: panel of 320 non-olfactory GPCRs (Homo sapiens, UniProt Q9HBW0)
Chain of panel of 320 non-olfactory GPCRs (Homo sapiens, UniProt Q9HBW0) (Q9HBW0 whole entry): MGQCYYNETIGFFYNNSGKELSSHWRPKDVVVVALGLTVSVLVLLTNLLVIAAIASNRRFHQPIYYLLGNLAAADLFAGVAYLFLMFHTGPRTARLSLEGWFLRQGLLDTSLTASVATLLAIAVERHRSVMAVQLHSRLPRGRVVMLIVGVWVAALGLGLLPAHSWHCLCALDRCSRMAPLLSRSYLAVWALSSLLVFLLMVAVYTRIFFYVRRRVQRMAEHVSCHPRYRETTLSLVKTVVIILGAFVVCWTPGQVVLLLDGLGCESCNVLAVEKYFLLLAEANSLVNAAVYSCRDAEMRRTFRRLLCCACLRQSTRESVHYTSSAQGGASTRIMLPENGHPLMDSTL

[36] = biological target: panel of 320 non-olfactory GPCRs (Homo sapiens, UniProt Q9NYM4)
Chain of panel of 320 non-olfactory GPCRs (Homo sapiens, UniProt Q9NYM4) (Q9NYM4 17-423): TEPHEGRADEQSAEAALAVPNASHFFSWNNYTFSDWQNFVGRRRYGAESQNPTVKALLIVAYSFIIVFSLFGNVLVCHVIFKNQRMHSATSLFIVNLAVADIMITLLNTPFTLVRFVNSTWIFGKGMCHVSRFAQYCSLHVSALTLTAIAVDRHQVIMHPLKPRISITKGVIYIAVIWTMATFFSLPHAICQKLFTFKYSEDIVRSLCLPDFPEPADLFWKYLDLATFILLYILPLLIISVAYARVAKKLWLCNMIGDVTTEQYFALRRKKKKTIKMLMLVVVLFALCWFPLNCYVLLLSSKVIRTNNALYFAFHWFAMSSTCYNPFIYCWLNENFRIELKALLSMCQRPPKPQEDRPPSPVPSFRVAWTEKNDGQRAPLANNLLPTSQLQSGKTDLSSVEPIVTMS

[37] = biological target: panel of 320 non-olfactory GPCRs (Homo sapiens, UniProt Q9Y5Y3)
Chain of panel of 320 non-olfactory GPCRs (Homo sapiens, UniProt Q9Y5Y3) (Q9Y5Y3 whole entry): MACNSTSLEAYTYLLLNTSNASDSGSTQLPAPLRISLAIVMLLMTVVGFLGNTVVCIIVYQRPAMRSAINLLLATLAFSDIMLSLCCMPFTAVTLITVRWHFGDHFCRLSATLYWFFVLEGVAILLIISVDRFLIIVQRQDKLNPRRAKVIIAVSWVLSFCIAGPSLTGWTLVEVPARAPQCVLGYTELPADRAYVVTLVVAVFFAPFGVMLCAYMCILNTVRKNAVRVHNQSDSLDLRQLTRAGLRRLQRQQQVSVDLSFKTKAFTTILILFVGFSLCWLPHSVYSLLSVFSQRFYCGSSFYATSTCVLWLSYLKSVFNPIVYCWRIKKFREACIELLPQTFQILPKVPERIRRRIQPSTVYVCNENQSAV
Also: test concentration or dose not given here.

Chain of panel of 320 non-olfactory GPCRs (Homo sapiens, UniProt O15354) (O15354 27-613): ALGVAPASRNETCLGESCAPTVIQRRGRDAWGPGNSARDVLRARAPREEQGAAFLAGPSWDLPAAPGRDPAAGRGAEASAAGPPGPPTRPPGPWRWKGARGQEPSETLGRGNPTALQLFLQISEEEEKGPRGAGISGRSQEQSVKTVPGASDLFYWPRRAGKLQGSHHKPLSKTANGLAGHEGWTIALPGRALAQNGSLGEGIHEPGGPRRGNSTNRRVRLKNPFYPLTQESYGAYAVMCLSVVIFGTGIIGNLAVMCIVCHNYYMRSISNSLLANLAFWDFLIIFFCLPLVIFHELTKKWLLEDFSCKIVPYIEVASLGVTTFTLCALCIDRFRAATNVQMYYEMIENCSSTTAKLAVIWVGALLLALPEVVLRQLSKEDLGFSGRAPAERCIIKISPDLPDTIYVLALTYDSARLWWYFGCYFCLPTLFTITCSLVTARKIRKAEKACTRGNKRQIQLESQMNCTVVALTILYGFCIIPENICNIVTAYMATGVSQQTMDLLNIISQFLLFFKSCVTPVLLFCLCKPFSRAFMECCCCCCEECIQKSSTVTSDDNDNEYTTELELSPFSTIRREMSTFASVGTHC

Row | Compound | Fold of Basal RLU [1] | Fold of Basal RLU [2] | Fold of Basal RLU [3] | Fold of Basal RLU [4] | Fold of Basal RLU [5] | Fold of Basal RLU [6] | Fold of Basal RLU [7] | Fold of Basal RLU [8] | Fold of Basal RLU [9] | Fold of Basal RLU [10] | Fold of Basal RLU [11] | Fold of Basal RLU [12] | Fold of Basal RLU [13] | Fold of Basal RLU [14] | Fold of Basal RLU [15] | Fold of Basal RLU [16] | Fold of Basal RLU [17] | Fold of Basal RLU [18] | Fold of Basal RLU [19] | Fold of Basal RLU [20] | further results
1 | COC(=O)[C@@](C)(NC(=O)c1cc(C)n(-c2cccc(C(F)(F)F)c2)n1)c1cccs1 [‘1350] | 1.1 fold and 1.4 fold and 1.2 fold and 1.6 fold | 1 fold and 0.8 fold and 0.9 fold and 1.3 fold | 0.9 and 1.1 and 0.8 | 1.1 fold and 0.9 fold and 1.2 fold and 1 fold | 1.1 fold and 0.9 fold and 0.8 fold | 1 fold and 1.1 fold and 1.3 fold | 1.3 fold and 1.1 fold and 1.2 fold | 0.6 and 0.7 and 1.1 | 1.1 and 1.3 and 1.2 | 2.3 and 2 and 1.6 | 0.8 and 0.9 and 1 | 8.2 and 8.7 and 8.6 | 1.1 and 0.9 and 1.3 | 0.8 and 0.6 and 0.7 | 1.6 and 1.3 and 1.1 | 1.5 fold and 2.2 fold | 2.2 fold and 2.3 fold and 2.4 fold | 1.2 and 0.9 and 0.8 and 1 | 0.8 and 1.2 | 0.7 and 0.6 and 1 | Fold of Basal RLU [21]: 1 fold and 1.2 fold and 0.8 fold and 1.1 fold; Fold of Basal RLU [22]: 0.8 and 0.9; Fold of Basal RLU [23]: 0.9 and 0.7 and 1.3 and 1; Fold of Basal RLU [24]: 0.9 fold and 1.2 fold and 1 fold; Fold of Basal RLU [25]: 0.7 fold and 0.9 fold and 1.1 fold; Fold of Basal RLU [26]: 0.8 fold and 0.7 fold and 1 fold and 0.9 fold; Fold of Basal RLU [27]: 0.7 fold and 0.9 fold and 1 fold and 1.1 fold; Fold of Basal RLU [28]: 1.1 and 0.9 and 1.3 and 0.7; Fold of Basal RLU [29]: 2.1 and 1.2 and 1.1; Fold of Basal RLU [30]: 1.3 fold and 1 fold and 1.2 fold; Fold of Basal RLU [31]: 0.6 fold and 0.8 fold and 0.4 fold; Fold of Basal RLU [32]: 1.1 fold and 0.8 fold and 0.9 fold; Fold of Basal RLU [33]: 1 and 0.8 and 1.3; Fold of Basal RLU [34]: 1.5 and 1.4 and 1.3; Fold of Basal RLU [35]: 0.7 and 0.8 and 1.1 and 0.6; Fold of Basal RLU [36]: 1.2 fold and 1 fold and 0.8 fold; Fold of Basal RLU [37]: 0.8 and 1.2 and 1.3 and 1
2 | Cc1cc(C(=O)NC(C)(c2ccco2)c2ccco2)nn1-c1cccc(C(F)(F)F)c1 [‘4936] | 1.4 fold and 1.2 fold and 1.7 fold and 2.2 fold | 1 fold and 1.1 fold and 1.2 fold | 0.7 and 0.9 and 0.8 | 0.8 fold and 0.7 fold | 0.9 fold and 0.8 fold and 0.6 fold | 1.4 fold and 1.3 fold and 1.1 fold | 1.4 fold and 1.2 fold and 1.3 fold | 0.9 and 0.7 and 1 and 0.6 | 1.7 and 1.2 and 1.4 and 1.8 | 1.9 and 1.7 and 2.4 and 1.5 | 0.9 and 1 | 12.4 and 11.8 and 12 and 10.8 | 0.6 and 0.7 and 1.1 | 1.1 and 1.2 and 0.9 and 0.8 | 1.3 and 1.1 and 0.9 and 1.4 | 2.1 fold and 2.3 fold | 2.7 fold and 3.1 fold and 3.2 fold | 1 and 0.7 and 1.1 | 0.9 and 1.3 and 1.1 | 1.2 and 0.8 and 0.7 and 1.1 | Fold of Basal RLU [21]: 1.6 fold and 1.4 fold and 1.1 fold; Fold of Basal RLU [22]: 0.6 and 0.7; Fold of Basal RLU [23]: 0.8 and 0.6 and 0.5 and 0.7; Fold of Basal RLU [24]: 0.8 fold and 1 fold; Fold of Basal RLU [25]: 0.9 fold and 1.1 fold and 0.6 fold and 1 fold; Fold of Basal RLU [26]: 1.7 fold and 1.2 fold and 1.4 fold and 2.1 fold; Fold of Basal RLU [27]: 0.9 fold; Fold of Basal RLU [28]: 0.9 and 0.6 and 1.1; Fold of Basal RLU [29]: 2.2 and 2.3 and 1.6 and 3.1; Fold of Basal RLU [30]: 1.1 fold and 1 fold and 0.9 fold; Fold of Basal RLU [31]: 1.4 fold and 0.8 fold and 1.2 fold; Fold of Basal RLU [32]: 1.2 fold and 1.3 fold; Fold of Basal RLU [33]: 2.5 and 1.9 and 1.6 and 2.2; Fold of Basal RLU [34]: 1.5 and 1.4 and 1.6; Fold of Basal RLU [35]: 0.7 and 0.8 and 1 and 1.2; Fold of Basal RLU [36]: 0.8 fold and 0.9 fold and 0.6 fold; Fold of Basal RLU [37]: 1.6 and 1.2 and 1.5

From paper PMC11882969 (Nature Communications, 2025)
